Source: patent US20210145801A1, “THERAPY FOR PROTEIN MISFOLDING DISEASE” (WREN THERAPEUTICS LIMITED, priority 2018, published 2021)

Legend:
[1] = system: N2 control (healthy) worms; assay: Automated motility assay in healthy control worms; assay type: in vivo, C. elegans; conditions: same concentration range as in AD worms
Description: Standard conditions were used for the propagation of C. elegans (S. Brenner, The genetics of Caenorhabditis elegans. Genetics. 77, 71-94 (1974)). Briefly, the animals were synchronized by hypochlorite bleaching, hatched overnight in M9 buffer (3 g/l KH2PO4, 6 g/l Na2HPO4, 5 g/l NaCl, […]), and subsequently cultured at 20° C. on nematode growth medium (NGM) (CaCl2) 1 mM, MgSO4 1 mM, cholesterol 5 μg/mL, PBS Buffer (250 μM KH2PO4, 67.5 μM KCl, 3.425 mM of NaCl, pH 6), Agar 17 g/L, NaCl 3 g/1, casein 7.5 g/l) plates seeded with the E. coli strain OP50. […]
(§1) All C. elegans populations were cultured at 20° C. and developmentally synchronized from a 4 h egg-lay. At 64-72 h post-egg-lay (time zero), individuals were transferred to FUDR plates, and body movements were assessed over the times indicated. At different ages, the animals were washed off the plates with M9 buffer and spread over an OP-50 unseeded 9 cm plate, after which their movements were recorded at 20 fps using a recently developed microscopic procedure (M. Perni et al., Massively parallel C. elegans tracking provides multi-dimensional fingerprints for phenotypic discovery. J. Neurosci. Methods. 306, 57-67 (2018)) for 1 min. Up to 600 animals were counted in each experiment in duplicate unless stated otherwise. […]

[2] = system: Aβ1-42Neur worms (CL2355); assay: Automated motility assay in Aβ1-42Neur worms; assay type: in vivo, C. elegans; conditions: vs untreated worms
Description: Briefly, Netoglitazone stocks (5 mM in 100% DMSO) were used at an appropriate concentration to seed 9-cm NGM plates. Plates were then placed in a laminar flow hood at room temperature (22° C.) for up to 4 hours to dry. C. elegans cultures were then transferred onto media seeded with compound as L4 stage or Day 3 for late treatments and incubated at 24° for the whole experiment. Experiments were carried out at different Netoglitazone concentrations ranging from 0.05 to 500 μM in 1% DMSO. As controls, plates seeded only with 1% DMSO were used.
as §1

[3] = system: Aβ plaques; assay: Aβ plaque quantification in APPPS1 transgenic mice; assay type: in vivo; conditions: 75 mg/kg/day once daily for 90 days from 60 days of age
Description: APPPS1 transgenic mice were used in the study, which co-express the Swedish mutation […] and PS1 mutation L166P under the control of the neuron-specific Thy-1 promoter on a C57BL/6 genetic background. APPPS1 mice were habituated ahead of the study to voluntarily drink a condensed milk formulation from a pipette. The condensed milk used in the study is commercially available (Migros) and contains milk, sugar, stabilizer E339. Body weight was measured ahead of commencing the study to calculate the dose of Netoglitazone for each mouse and to calculate the total blood volume. Mice aged 60 days old were then dosed once daily with a pipette for 90 days. The pipette contained 40-80 μL consisting of either condensed milk (2 ml/kg/day) only (placebo cohort) or condensed milk (2 ml/kg/day) and Netoglitazone (75 mg/kg/day). Blood was collected via retro-orbital sampling to monitor the concentration of Netoglitazone after 7 days and 28 days. Visual monitoring of the mice and measurement of body weight were conducted daily and every other week respectively. At the end of the experiment (i.e. after 90 days of once daily treatment such that mice were 150 days old), mice were euthanized and their brains were analyzed as outlined below. […]
The image files were analysed using custom-coded software. […]

O=C1NC(=O)C(Cc2ccc3cc(OCc4ccccc4F)ccc3c2)S1 (stereo not drawn) [Netoglitazone]
Effect on mobility of healthy worms [1]: negligible compared to the observed effect in AD worms
Motility of Aβ1-42Neur worms [2]: significantly improves the (A) chemotaxis index and (B) motility
Relative number of Aβ plaques in brain vs placebo [3]: decrease in the relative number of Aβ plaques
